Source: PubChem BioAssay AID330 (DTP/NCI, 2004)
Where “and” joins values, the source holds several entries; their conditions need not be identical. Equal entries are not always repeated. Toxic doses and inconclusive results are not listed. The calls were made as follows: active = survival T/C of 150% or more; inactive = T/C below 125% in these data.

System: P388 leukemia ip, CD2F1 mice, survival T/C
Test: NCI In Vivo Anticancer Drug Screen. Data for tumor model P388 Leukemia (intraperitoneal) in CD2F1 (CDF1) mice
Settings: endpoint: median survival time, higher = longer survival
Summary of the method: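 Mice carrying the transplanted tumor received test compound or vehicle. Survival was recorded in each group, and the value is the treated-group measurement divided by that of the vehicle-treated control group.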

[1] = dose: 25.0 mg/kg/injection, schedule: Q01DX009 (ip), vehicle: saline with Tween-80
[2] = dose: 6.25 mg/kg/injection, schedule: Q01DX009 (ip), vehicle: other
[3] = dose: 12.5 mg/kg/injection, schedule: Q01DX009 (ip), vehicle: Klucel (hydroxypropylcellulose) (HPC)
[4] = dose: 60.0 mg/kg/injection, schedule: Q01DX005 (ip), vehicle: saline with Tween-80
[5] = dose: 50.0 mg/kg/injection, schedule: Q01DX009 (ip), vehicle: saline with Tween-80
[6] = dose: 60.0 mg/kg/injection, schedule: Q01DX005 (ip), vehicle: Klucel (hydroxypropylcellulose) (HPC)
[7] = dose: 240.0 mg/kg/injection, schedule: Q01DX005 (ip), vehicle: Klucel (hydroxypropylcellulose) (HPC)
[8] = dose: 50.0 mg/kg/injection, schedule: Q01DX005 (ip), vehicle: Klucel (hydroxypropylcellulose) (HPC)
[9] = dose: 100.0 mg/kg/injection, schedule: Q01DX005 (ip), vehicle: Klucel (hydroxypropylcellulose) (HPC)
[10] = dose: 200.0 mg/kg/injection, schedule: Q01DX005 (ip), vehicle: Klucel (hydroxypropylcellulose) (HPC)

Measured: T/C

CC(/C=N\NC(=S)SCc1ccccc1)=N/N=C(N)N
inactive: dose: 6.25 mg/kg/injection, schedule: Q01DX009 (ip), vehicle: saline with Tween-80 101 % of control | dose: 12.5 mg/kg/injection, schedule: Q01DX009 (ip), vehicle: saline with Tween-80 95 % of control | [1] 101 % of control | dose: 50.0 mg/kg/injection, schedule: Q01DX009 (ip), vehicle: saline 91 % of control | dose: 100.0 mg/kg/injection, schedule: Q01DX009 (ip), vehicle: saline 92 % of control

CS(=N)(=O)c1ccccc1N (stereo unspecified)
inactive: dose: 100.0 mg/kg/injection, schedule: Q04DX003 (ip), vehicle: saline with Tween-80 98 % of control | dose: 200.0 mg/kg/injection, schedule: Q04DX003 (ip), vehicle: saline with Tween-80 99 % of control | dose: 400.0 mg/kg/injection, schedule: Q04DX003 (ip), vehicle: saline with Tween-80 103 % of control

COc1cccc2c1C(=O)c1c(O)c3c(c(O)c1C2=O)CC(O)(C(=O)CO)CC3OC1CC(N)C(O)C(C)O1 (stereo unspecified) (tested in a mixture with another compound)
inactive: [2] 115 % of control | dose: 25.0 mg/kg/injection, schedule: Q01DX009 (ip), vehicle: other 89 % of control

COC(=O)C1=[N+]([O-])[N+]([O-])=C(C(=O)OC)C1=O
inactive: [3] 95 % of control | dose: 25.0 mg/kg/injection, schedule: Q01DX009 (ip), vehicle: Klucel (hydroxypropylcellulose) (HPC) 94 % of control

Cc1ncc([N+](=O)[O-])n1CCN=[N+]=[N-]
inactive: dose: 50.0 mg/kg/injection, schedule: Q04DX003 (ip), vehicle: saline 99 % of control and 100 % of control | dose: 100.0 mg/kg/injection, schedule: Q04DX003 (ip), vehicle: saline 101 % of control and 107 % of control | dose: 200.0 mg/kg/injection, schedule: Q04DX003 (ip), vehicle: saline 100 % of control and 112 % of control | dose: 400.0 mg/kg/injection, schedule: Q04DX003 (ip), vehicle: saline 100 % of control and 107 % of control

CCOC(=O)/C(C#N)=C/c1ccc(C)o1
inactive: dose: 15.0 mg/kg/injection, schedule: Q01DX005 (ip), vehicle: saline with Tween-80 99 % of control | dose: 30.0 mg/kg/injection, schedule: Q01DX005 (ip), vehicle: saline with Tween-80 100 % of control | [4] 100 % of control and 101 % of control

NCCCN1c2ccccc2Sc2ccc(Cl)cc21
inactive: [1] 99 % of control and 90 % of control | [5] 113 % of control and 120 % of control

CCOC(=O)c1ccc(NC(=O)Nc2ccccc2OC)cc1
inactive: dose: 3.75 mg/kg/injection, schedule: Q01DX005 (ip), vehicle: Klucel (hydroxypropylcellulose) (HPC) 94 % of control | dose: 7.5 mg/kg/injection, schedule: Q01DX005 (ip), vehicle: Klucel (hydroxypropylcellulose) (HPC) 97 % of control | dose: 15.0 mg/kg/injection, schedule: Q01DX005 (ip), vehicle: Klucel (hydroxypropylcellulose) (HPC) 92 % of control | [6] 88 % of control | [7] 86 % of control

CC(C)(C)C1(C(C)(C)C)CO1
inactive: dose: 6.25 mg/kg/injection, schedule: Q01DX009 (ip), vehicle: saline 98 % of control | dose: 12.5 mg/kg/injection, schedule: Q01DX009 (ip), vehicle: saline 96 % of control

CN(N=Nc1ccc(C#N)cc1)C(C)(C)C
inactive: dose: 50.0 mg/kg/injection, schedule: Q01DX005 (ip), vehicle: saline with Tween-80 100 % of control | dose: 100.0 mg/kg/injection, schedule: Q01DX005 (ip), vehicle: saline with Tween-80 100 % of control

CCCCCCCCC1=CCc2c1ccc1c2ccc2cc(C(=O)Oc3cccc(N(CCCl)CCCl)c3)ccc21
inactive: dose: 100.0 mg/kg/injection, schedule: Q01DX001 (ip), vehicle: saline 99 % of control | dose: 200.0 mg/kg/injection, schedule: Q01DX001 (ip), vehicle: saline 100 % of control | dose: 400.0 mg/kg/injection, schedule: Q01DX001 (ip), vehicle: saline 100 % of control

O=C(OC(=O)c1cccc(-c2ccccc2)c1)c1cccc(-c2ccccc2)c1
inactive: dose: 100.0 mg/kg/injection, schedule: Q04DX003 (ip), vehicle: Klucel (hydroxypropylcellulose) (HPC) 104 % of control | dose: 200.0 mg/kg/injection, schedule: Q04DX003 (ip), vehicle: Klucel (hydroxypropylcellulose) (HPC) 90 % of control | dose: 400.0 mg/kg/injection, schedule: Q04DX003 (ip), vehicle: Klucel (hydroxypropylcellulose) (HPC) 90 % of control

NC(=O)C12OC3CC(CC(C3)O1)O2
inactive: dose: 60.0 mg/kg/injection, schedule: Q01DX005 (ip), vehicle: saline 117 % of control | dose: 120.0 mg/kg/injection, schedule: Q01DX005 (ip), vehicle: saline 98 % of control | dose: 240.0 mg/kg/injection, schedule: Q01DX005 (ip), vehicle: saline 99 % of control

O=C1C=CC2(CCC23C=C(Br)C(=O)O3)O1 (stereo unspecified)
inactive: dose: 5.0 mg/kg/injection, schedule: Q01DX009 (ip), vehicle: Klucel (hydroxypropylcellulose) (HPC) 102 % of control | dose: 10.0 mg/kg/injection, schedule: Q01DX009 (ip), vehicle: Klucel (hydroxypropylcellulose) (HPC) 108 % of control | dose: 20.0 mg/kg/injection, schedule: Q01DX009 (ip), vehicle: Klucel (hydroxypropylcellulose) (HPC) 106 % of control

CC(C)(C)C1=CC(CC(N)=O)(C(C)(C)C)OC1=O (stereo unspecified)
inactive: [8] 98 % of control | [9] 100 % of control | [10] 105 % of control

O=C(Nc1cccc2ccccc12)C1C(=O)C(=O)N(c2cccc3ccccc23)C1=O (stereo unspecified)
inactive: dose: 50.0 mg/kg/injection, schedule: Q01DX009 (ip), vehicle: Klucel (hydroxypropylcellulose) (HPC) 103 % of control | dose: 100.0 mg/kg/injection, schedule: Q01DX009 (ip), vehicle: Klucel (hydroxypropylcellulose) (HPC) 105 % of control | dose: 200.0 mg/kg/injection, schedule: Q01DX009 (ip), vehicle: Klucel (hydroxypropylcellulose) (HPC) 100 % of control

COc1ccc(C(=O)C2Cc3c(ccc4ccccc34)OC2=O)cc1 (stereo unspecified)
inactive: [5] 95 % of control | dose: 100.0 mg/kg/injection, schedule: Q01DX009 (ip), vehicle: saline with Tween-80 91 % of control | dose: 200.0 mg/kg/injection, schedule: Q01DX009 (ip), vehicle: saline with Tween-80 88 % of control

O=C(c1ccc2cc(Cl)c(Cl)cc2c1)C(Cl)Cl
inactive: dose: 1.56 mg/kg/injection, schedule: Q01DX009 (ip), vehicle: Klucel (hydroxypropylcellulose) (HPC) 116 % of control | dose: 3.12 mg/kg/injection, schedule: Q01DX009 (ip), vehicle: Klucel (hydroxypropylcellulose) (HPC) 104 % of control | dose: 6.25 mg/kg/injection, schedule: Q01DX009 (ip), vehicle: Klucel (hydroxypropylcellulose) (HPC) 101 % of control and 97 % of control | [3] 88 % of control

COC(=O)c1ccccc1S(=O)(=O)N1CCOCC1
inactive: [8] 99 % of control | [9] 99 % of control | [10] 98 % of control

CCN1C2OC3CCC2(C)C2C(OC)C4(O)C1C32C1CC2C(OC)CC4(O)C1C2O (stereo unspecified)
inactive: dose: 0.94 mg/kg/injection, schedule: Q01DX005 (ip), vehicle: saline + alcohol 106 % of control | dose: 1.88 mg/kg/injection, schedule: Q01DX005 (ip), vehicle: saline + alcohol 102 % of control | dose: 3.75 mg/kg/injection, schedule: Q01DX005 (ip), vehicle: saline + alcohol 108 % of control | dose: 7.5 mg/kg/injection, schedule: Q01DX005 (ip), vehicle: saline + alcohol 102 % of control

COc1cc([N+](=O)[O-])c2nc(Cl)ccc2c1[N+](=O)[O-]
inactive: dose: 1.56 mg/kg/injection, schedule: Q01DX009 (ip), vehicle: other 96 % of control | dose: 3.13 mg/kg/injection, schedule: Q01DX009 (ip), vehicle: other 97 % of control | [2] 104 % of control | dose: 12.5 mg/kg/injection, schedule: Q01DX009 (ip), vehicle: other 94 % of control | dose: 50.0 mg/kg/injection, schedule: Q01DX009 (ip), vehicle: other 99 % of control

N#C/C(=N\Nc1ccccc1Cl)C(=O)C1CC1
inactive: [6] 100 % of control | dose: 120.0 mg/kg/injection, schedule: Q01DX005 (ip), vehicle: Klucel (hydroxypropylcellulose) (HPC) 100 % of control | [7] 89 % of control

O=C(Cc1nc2ccccc2nc1CC(=O)c1cccnc1)c1cccnc1
inactive: [4] 102 % of control | dose: 120.0 mg/kg/injection, schedule: Q01DX005 (ip), vehicle: saline with Tween-80 93 % of control | dose: 240.0 mg/kg/injection, schedule: Q01DX005 (ip), vehicle: saline with Tween-80 93 % of control

COc1ccc2sc(C)cc(=O)c2c1
inactive: dose: 50.0 mg/kg/injection, schedule: Q01DX009 (ip), vehicle: saline + Tween-80 + alcohol 106 % of control | dose: 100.0 mg/kg/injection, schedule: Q01DX009 (ip), vehicle: saline + Tween-80 + alcohol 109 % of control | dose: 200.0 mg/kg/injection, schedule: Q01DX009 (ip), vehicle: saline + Tween-80 + alcohol 109 % of control
